According to patent publication US20080176963A1, “TREATMENT OF BRAIN DISORDERS OF THE STRIATUM” (priority 2007, published 2008):
Read-outs that look alike come from different tables or passages of the source.

What was measured:
[1] = test system: indirect-pathway MSN synapses; type: cell-based, mouse
[2] = test system: 6-OHDA-treated mice; settings: mouse, in vivo
Protocol: (§1) Dopamine depletion and behaviour. Reserpine was administered i.p. at a concentration of 1 or 5 mgkg^−1, and electrophysiological and behavioural experiments were performed 18-24 h after injections. 6-Hydroxydopamine was injected bilaterally into the median forebrain bundle at a concentration of 5 μg μl^−1 to a total volume of 2 μL per side, and experiments were performed 48-60 h after injections. Catalepsy was measured with the bar test. Descent latency represents the time in seconds required for the mouse either to remove both paws from a bar (diameter 2 mm) placed 4 cm above the ground, or for one paw to touch the ground. Horizontal locomotor activity was measured in 15-min blocks with the ENV-510 test chamber and Activity Monitor software. Animals were tested 45-60 min after drug administration. All procedures involving animals were approved by the Institutional Animal Care and Use Committee.
(§2) 6-hydroxydopamine treatment Bilateral lesions of the substantia nigra pars compacta were achieved by injecting 6-OHDA Bromide (Sigma-Aldrich) into the right and left medial forebrain bundles. Mice were anesthetized with i.p. injections of ketamine (100 mg/kg)/xylazine (10 mg/kg) and placed into a stereotactic frame. 6-OHDA was prepared immediately before injections at a concentration of 5 μg/μL in 0.02% ascorbic acid. Injections were performed using 33 gauge cannulae (Plastics One) attached to a syringe pump (Harvard Apparatus) running at 0.5 μL/min, to a total volume of 2 μL/side at the following coordinates: AP: −1.5 mm; ML±1 mm; DV: 4.8 mm. Brain slices were obtained from 6-OHDA treated animals at 48-60 hour after injections.
(§3) Behavior. 3- to 4-week-old C57/BL6 wild-type mice were injected with reserpine (1 mg/kg i.p.) or 6-OHDA as described above. […] Animals were tested 18-24 hours after reserpine injections and 48-60 hours after 6-OHDA injections. […]
(§4) To test catalepsy, a horizontal bar (2 mm diameter) was placed 4 cm above the ground. […] Descent latency was measured as the delay to when either both paws were removed from the bar or one paw touched the ground. […]

[3] = test system: 6-OHDA-treated mice; type: in vivo, mouse
Protocol: as §1, §2, §3, §4

[4] = test system: tyrosine hydroxylase; test: Tyrosine hydroxylase staining of striatum after 6-OHDA; type: in vivo, mouse; settings: 48 hours after bilateral 6-OHDA injection (5 μg/μL, 2 μL/side)
Protocol: as §2
Tyrosine hydroxylase staining. The degree of dopamine denervation was assessed at 48 hours post-injection in a subset of 6-OHDA-treated mice by tyrosine hydroxylase (TH) staining. Mouse forebrains were fixed at 4° C. for 1 hour in 4% paraformaldehyde (in PBS), and then kept in PBS overnight at 4° C. Brains were transferred to 30% sucrose (in PBS) for 2 hours, blocked in O.C.T. and frozen. […] coronal slices containing the striatum were collected on slides using a cryostat. […] Images were acquired on a Zeiss Axioskop 2 coupled to a Hamamatsu CCD and analyzed using Metamorph software.

[5] = test system: indirect-pathway synapses; test: DHPG-elicited depression of EPSCs (eCB-LTD), indirect pathway; type: cell-based, mouse
[6] = test system: direct-pathway synapses; test: DHPG-elicited depression of EPSCs (eCB-LTD), direct pathway; type: cell-based, mouse; settings: DHPG 100 μM for 10 min, MSNs held at +50 mV (so in the source)
[7] = test system: medium spiny neurons; test: Effect of drug wash-in alone on EPSC amplitudes in striatal MSNs; type: cell-based, mouse; settings: URB597 1 μM; URB754 5 μM
[8] = test system: reserpine-treated mice; test: Catalepsy bar test in reserpine-treated mice; type: in vivo, mouse
Protocol: as §1
(§5) Reserpine treatment. To study the effects of dopamine depletion, reserpine (Sigma-Aldrich) was dissolved in 1% glacial acetic acid at a concentration of 2.5 mg/mL. This solution was diluted with dH20 by a factor of 10, to yield a final concentration of 0.1% glacial acetic acid and 250 μg/mL reserpine This reserpine solution was injected i.p. at a concentration of 1 mg/kg or 5 mg/kg as stated in the text.
(§6) Behavior. 3- to 4-week-old C57/BL6 wild-type mice were injected with reserpine (1 mg/kg i.p.) or 6-OHDA as described above. […] Animals were tested 18-24 hours after reserpine injections and 48-60 hours after 6-OHDA injections. […] All drugs were injected i.p. in 0.9% NaCl at a volume of 20 μL/gm. The injection solution for URB597 was prepared by diluting a stock solution prepared in DMSO into saline, with a final concentration of 0.5% DMSO. Animals were then tested again at 45-60 minutes following drug injections. […]
as §4

[9] = test system: indirect-pathway MSN synapses; test: LTD induced by tetanic stimulation in striatal slices from reserpine-treated mice; type: cell-based, mouse
[10] = test system: reserpine-treated mice; test: Open-field locomotor activity in reserpine-treated mice; type: in vivo, mouse
Protocol: as §1, §5, §6, §4

[11] = test system: direct pathway neurons; test: LTD induction at direct pathway synapses in striatal slices; type: cell-based, mouse; settings: URB754 5 μM
[12] = test system: direct-pathway synapses; test: Presynaptic inhibition of EPSCs by CB1 receptor agonist, direct pathway; type: cell-based, mouse; settings: WIN55,212 1 μM; control mice
[13] = test system: indirect-pathway synapses; test: Presynaptic inhibition of EPSCs by CB1 receptor agonist, indirect pathway; type: cell-based, mouse; settings: WIN55,212 1 μM
[14] = test system: MSNs; test: Block of carbachol-induced inward membrane current in MSNs; type: cell-based, mouse; settings: pirenzepine; data not shown
From the text: FIG. 5. […] The arrow marks the time of LTD induction. […] Error bars are ±SEM.

[15] = test system: striatal dopamine; settings: 18-24 hours after reserpine injection; cited from earlier work
[16] = test system: indirect-pathway MSN synapses; test: LTD induced by high-frequency afferent stimulation, whole-cell recording in striatal slices of control mice; type: cell-based, mouse; settings: indirect-pathway MSNs; AM251 1 μM; sulpiride 10 μM; methysergide 4 μM, GR125487 1 μM, LY278584 1 μM, prazosin 2 μM, propranolol 1 μM; without drug 51±5%

For `NCCc1cc(O)c(O)cc1O` [6-OHDA, 6-hydroxydopamine], the “EPSC after LTD induction, % of baseline at 30-40 min” value (shortened to “EPSC after LTD induction, %”) [1] was 111±13 % of baseline, the “Distance traveled in 15 min, open field” value [2] was 236±52 cm and the “Descent latency, catalepsy bar test” value ([3]; mouse, in vivo) was 45 ± 4 s. The “Immunoreactivity for tyrosine hydroxylase in the striatum” value [4] was 34±4 % of control.
With `N[C@H](C(=O)O)c1cc(O)cc(O)c1` [DHPG, (S)-3,5-dihydroxyphenylglycine] the “EPSC, % of baseline at 20-30 min after brief DHPG application” value ([5]; DHPG 100 μM for 1 min, alone or in the presence of quinpirole 10 μM or URB754) was 98±5 % of baseline, the “EPSC, % of baseline at 30-40 min” value ([5]; DHPG 100 μM for 10 min, MSNs held at +50 mV (so in the source)) was 64±5 % of baseline and the “EPSC, % of baseline at 30-40 min” value [6] was 95±9 % of baseline.
With `NC(=O)c1cccc(-c2cccc(OC(=O)NC3CCCCC3)c2)c1` [URB597] the “EPSC after LTD induction, %” value [1] was 55±7 % of baseline, the “Distance traveled in 15 min, open field” value [2] was “no significant decrease in catalepsy or increase in locomotor activity” and the “Descent latency, catalepsy bar test” value ([3]; mouse, in vivo) was “no significant decrease in catalepsy”. The “Effect of drug alone on EPSC amplitudes / synaptic transmission” value [7] was “no effect”, the “Descent latency, catalepsy bar test” value ([8]; mouse, in vivo) was “no significant decrease in catalepsy” and the “EPSC after LTD induction, %” value [9] was 62±5 % of baseline. For the same molecule, the “Distance traveled in 15 min, open field” value ([10]; mouse, in vivo) was “no significant decrease in catalepsy or increase in locomotor activity”.
With `Cc1ccc(Nc2nc3ccc(C)cc3c(=O)o2)cc1` [URB754] the “LTD at direct pathway neurons in the presence of drug” value [11] was “nor did it unmask LTD”, the “EPSC after LTD induction, %” value [1] was 69±9 % of baseline and the “EPSC, % of baseline at 20-30 min after brief DHPG application” value [5] was 84±6 % of baseline. The “Distance traveled in 15 min, open field” value [2] was “no significant decrease in catalepsy or increase in locomotor activity”, the “Descent latency, catalepsy bar test” value ([3]; 6-OHDA-treated mice, URB754 1.5 mg/kg i.p., quinpirole 1.5 mg/kg i.p., alone or coadministered) was “no significant decrease in catalepsy” and the “Effect of drug alone on EPSC amplitudes / synaptic transmission” value [7] was “no effect”. The “Descent latency, catalepsy bar test” value ([8]; reserpine-treated mice, URB754 1.5 mg/kg i.p., quinpirole 1.5 mg/kg i.p., alone or coadministered) was “no significant decrease in catalepsy”, the “EPSC after LTD induction, %” value [9] was 68±13 % of baseline and the “Distance traveled in 15 min, open field” value ([10]; mouse, in vivo) was “no significant decrease in catalepsy or increase in locomotor activity”.
With `Cc1c(C(=O)c2cccc3ccccc23)c2cccc3c2n1[C@H](CN1CCOCC1)CO3` [WIN55,212] the “EPSC, % of baseline at 15-20 min after wash-in” value [12] was 56±8 % of baseline, the “EPSC, % of baseline at 15-20 min after wash-in” value ([13]; control mice) was 47±7 % of baseline and the “EPSC, % of baseline at 15-20 min after washing” value ([13]; dopamine-depleted animals (reserpine and 6-OHDA pooled)) was 58±5 % of baseline.
For `CN1CCN(CC(=O)N2c3ccccc3C(=O)Nc3cccnc32)CC1` [pirenzepine], the “Block of carbachol-induced inward membrane current” value [14] was “block a carbachol-induced inward membrane current”.
In the case of `COC(=O)[C@H]1[C@H]2C[C@@H]3c4[nH]c5cc(OC)ccc5c4CCN3C[C@H]2C[C@@H](OC(=O)c2cc(OC)c(OC)c(OC)c2)[C@@H]1OC` [reserpine], the Striatal dopamine [15] is given as < 1 % of normal levels, the “Descent latency, catalepsy bar test” value ([8]; reserpine 1 mg/kg i.p. 18-24 h before, URB597 1 mg/kg i.p., quinpirole 1.5 mg/kg i.p., alone or together, 60 s maximum, reserpine line = before drug) is given as “more than 60 s” and the “EPSC after LTD induction, %” value ([9]; mice given reserpine 5 mg/kg i.p. 18-24 h earlier, in bath quinpirole 10 μM, URB597 1 μM or URB754 5 μM, reserpine line = no drug in bath) is given as 122±8 % of baseline. The “Distance traveled in 15 min, open field” value ([10]; reserpine 1 mg/kg i.p. 18-24 h before, URB597 1 mg/kg i.p., quinpirole 1.5 mg/kg i.p., 45-60 min after injection, reserpine line = before drug) was 48±11 cm.
For `CCN1CCCC1CNC(=O)c1cc(S(N)(=O)=O)ccc1OC` (centres unmarked) [sulpiride], the “EPSC after LTD induction, %” value [16] was 96±12 % of baseline.
